Test results reported in PMC11311990, “Identification of Ribonuclease Inhibitors for the Control of Pathogenic Bacteria” (International Journal of Molecular Sciences, 2024).

Tests used:
RNase R = biological target: T1, RNase R (Escherichia coli, UniProt P21499); type: biochemical; conditions: 10 mM compound, 10 nM enzyme, 10 nM poly(A), 1 mM MgCl2, 100 mM KCl, pH 8, 37 °C, DMSO
T1 construct: gene rnr; full-length recombinant, N-terminal His tag (pET15b derivative), expressed in E. coli BL21(DE3), IMAC purified
T1 sequence (P21499 2-813): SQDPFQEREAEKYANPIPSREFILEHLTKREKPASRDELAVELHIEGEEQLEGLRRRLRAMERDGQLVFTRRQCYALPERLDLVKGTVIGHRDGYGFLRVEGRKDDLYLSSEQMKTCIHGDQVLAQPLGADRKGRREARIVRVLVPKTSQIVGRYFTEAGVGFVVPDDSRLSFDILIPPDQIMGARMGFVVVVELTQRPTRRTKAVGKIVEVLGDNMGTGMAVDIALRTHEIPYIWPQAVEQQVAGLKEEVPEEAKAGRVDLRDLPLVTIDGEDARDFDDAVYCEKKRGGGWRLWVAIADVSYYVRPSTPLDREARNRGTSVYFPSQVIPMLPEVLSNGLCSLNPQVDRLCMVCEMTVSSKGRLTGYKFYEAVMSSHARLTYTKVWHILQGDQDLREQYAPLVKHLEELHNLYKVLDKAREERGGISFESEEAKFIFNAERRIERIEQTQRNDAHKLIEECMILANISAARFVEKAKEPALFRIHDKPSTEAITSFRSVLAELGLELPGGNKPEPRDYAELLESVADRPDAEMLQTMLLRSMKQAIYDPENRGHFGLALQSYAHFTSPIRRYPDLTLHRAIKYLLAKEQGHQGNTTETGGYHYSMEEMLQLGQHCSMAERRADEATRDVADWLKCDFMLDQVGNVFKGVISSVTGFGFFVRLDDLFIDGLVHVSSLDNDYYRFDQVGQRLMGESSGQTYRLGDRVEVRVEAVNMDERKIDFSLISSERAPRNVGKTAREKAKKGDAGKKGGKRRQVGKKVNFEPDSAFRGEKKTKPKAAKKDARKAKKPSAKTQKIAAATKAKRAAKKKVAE

RNase II = biological target: T2, RNase II (Escherichia coli, UniProt P30850); type: biochemical; conditions: 10 mM compound, 10 nM enzyme, 10 nM poly(A), 1 mM MgCl2, 100 mM KCl, pH 8, 37 °C, DMSO
T2 construct: gene rnb; full-length recombinant, N-terminal His tag (pET15b derivative), expressed in E. coli BL21(DE3), IMAC purified
T2 sequence (P30850 whole entry): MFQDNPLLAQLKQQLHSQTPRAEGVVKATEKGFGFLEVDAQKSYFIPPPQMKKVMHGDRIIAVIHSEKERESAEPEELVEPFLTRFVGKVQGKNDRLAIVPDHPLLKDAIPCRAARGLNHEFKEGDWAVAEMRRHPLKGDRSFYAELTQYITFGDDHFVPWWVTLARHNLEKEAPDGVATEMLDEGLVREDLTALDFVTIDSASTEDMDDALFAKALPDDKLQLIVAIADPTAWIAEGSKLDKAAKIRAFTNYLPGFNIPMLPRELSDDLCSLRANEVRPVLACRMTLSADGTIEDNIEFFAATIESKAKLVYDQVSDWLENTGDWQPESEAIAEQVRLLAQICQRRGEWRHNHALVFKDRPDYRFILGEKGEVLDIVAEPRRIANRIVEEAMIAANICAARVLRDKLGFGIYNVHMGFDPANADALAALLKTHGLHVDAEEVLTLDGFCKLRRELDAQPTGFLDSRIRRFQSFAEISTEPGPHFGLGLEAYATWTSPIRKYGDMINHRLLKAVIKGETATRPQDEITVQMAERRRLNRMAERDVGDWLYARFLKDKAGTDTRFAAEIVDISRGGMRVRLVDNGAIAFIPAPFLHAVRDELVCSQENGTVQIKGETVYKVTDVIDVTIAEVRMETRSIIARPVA

| Structure (SMILES) | gel exoribonuclease assay, 5'-32P 35-nt poly(A) (RNase R) | gel exoribonuclease assay, 5'-32P 35-nt poly(A) (RNase II) |
| --- | --- | --- |
| Cc1nc(S)nc(O)c1Oc1cccc(C(F)(F)F)c1 [SPB04215, 2-mercapto-6-methyl-5-[3-(trifluoromethyl)phenoxy]pyrimidin-4-ol] | SPB04215 and SPB04462 compounds were also effective in inhibiting RNase R activity | with RNase II being also affected, but to a lesser extent |
| CC(=O)Nc1nc(C)c(Oc2cccc(C(F)(F)F)c2)c(O)n1 [SPB04462, N1-{4-hydroxy-6-methyl-5-[3-(trifluoromethyl)phenoxy]pyrimidin-2-yl}acetamide] | SPB04215 and SPB04462 compounds were also effective in inhibiting RNase R activity | with RNase II being also affected, but to a lesser extent |
